The target in the assay is Human α2δ-1 Subunit of Cav2.2 Calcium Channel (Homo sapiens, UniProt P54289). The assay can be described thus: Binding assay to human α2δ-1 subunit of Cav2.2 calcium channel ([3H]-Gabapentin). The conditions noted are these: Table 1; human α2δ-1 enriched membranes, 15 nM [3H]-Gabapentin; read-out: Ki(nM) alpha2delta Hum. As for the experimental part: Binding Assay to Human α2δ-1 Subunit of Cav2.2 Calcium Channel.
Human α2δ-1 enriched membranes (2.5 μg) were incubated with 15 nM of radiolabeled [3H]-Gabapentin in assay buffer containing Hepes-KOH 10 mM, pH 7.4.
NSB (non specific binding) was measured by adding 10 μM pregabalin. The binding of the test compound was measured in five different concentrations. After 60 min incubation at 27° C., binding reaction was terminated by filtering through Multiscreen GF/C (Millipore) presoaked in 0.5% polyethyleneimine in Vacuum Manifold Station, followed by 3 washes with ice-cold filtration buffer containing 50 mM Tris-HCl, pH 7.4.
Filter plates were dried at 60° C. for 1 hour and 30 μl of scintillation cocktail were added to each well before radioactivity reading.
Readings were performed in a Trilux 1450 Microbeta radioactive counter (Perkin Elmer).

The text below walks through data of patent US11111220B2, “Propanamine derivatives for treating pain and pain related conditions” (ESTEVE PHARMACEUTICALS, S.A., priority 2017, dated 2021).

Sequence of Human α2δ-1 Subunit of Cav2.2 Calcium Channel (P54289 25-1103): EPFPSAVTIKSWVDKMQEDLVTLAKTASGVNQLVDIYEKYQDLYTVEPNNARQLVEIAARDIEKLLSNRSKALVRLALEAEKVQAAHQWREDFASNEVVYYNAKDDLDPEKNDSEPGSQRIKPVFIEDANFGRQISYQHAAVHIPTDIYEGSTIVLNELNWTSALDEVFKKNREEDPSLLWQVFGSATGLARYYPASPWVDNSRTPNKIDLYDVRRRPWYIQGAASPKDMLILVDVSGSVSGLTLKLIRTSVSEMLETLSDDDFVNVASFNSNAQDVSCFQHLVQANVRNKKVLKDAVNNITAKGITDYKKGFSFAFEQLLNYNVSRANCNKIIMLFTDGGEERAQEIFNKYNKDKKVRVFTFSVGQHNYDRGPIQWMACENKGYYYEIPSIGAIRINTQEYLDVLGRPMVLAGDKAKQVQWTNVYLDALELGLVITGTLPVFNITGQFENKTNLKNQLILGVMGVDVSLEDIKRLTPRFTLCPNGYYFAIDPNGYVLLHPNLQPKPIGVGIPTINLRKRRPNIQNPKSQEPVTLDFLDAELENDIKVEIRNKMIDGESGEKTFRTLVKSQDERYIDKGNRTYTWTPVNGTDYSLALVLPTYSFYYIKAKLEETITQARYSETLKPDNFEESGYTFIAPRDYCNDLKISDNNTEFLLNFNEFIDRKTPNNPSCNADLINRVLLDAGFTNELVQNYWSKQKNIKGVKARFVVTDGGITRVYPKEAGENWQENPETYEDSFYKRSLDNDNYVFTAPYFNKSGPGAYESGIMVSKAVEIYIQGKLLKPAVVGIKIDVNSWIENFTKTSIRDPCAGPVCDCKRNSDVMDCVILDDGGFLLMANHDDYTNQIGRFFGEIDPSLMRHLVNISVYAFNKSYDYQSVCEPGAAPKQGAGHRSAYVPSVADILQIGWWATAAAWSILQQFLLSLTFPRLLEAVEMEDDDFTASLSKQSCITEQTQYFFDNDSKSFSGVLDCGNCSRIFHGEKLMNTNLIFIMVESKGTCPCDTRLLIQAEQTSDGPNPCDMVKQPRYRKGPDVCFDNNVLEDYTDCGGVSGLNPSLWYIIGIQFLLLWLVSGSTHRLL

Take `CCN(Cc1ccccc1)Cc1cccc(OC(CCNC)c2cccs2)c1` (stereo not drawn) [Example 1, 3-(3-((Benzyl(ethyl)amino)methyl)phenoxy)-N-methyl-3-(thiophen-2-yl)propan-1-amine]: the Ki was 100 to 500 nM.

`CNCCC(Oc1cccc(CNC)c1)c1cccs1` (stereo not drawn) [Example 3, N-methyl-3-(3-((methylamino)methyl)phenoxy)-3-(thiophen-2-yl)propan-1-amine]: the Ki lay in the range of 100 to 500 nM.

Turning to `CNCCC(Oc1cccc(CN(C)C)c1)c1cccs1` (stereo not drawn) [Example 4, 3-(3-((Dimethylamino)methyl)phenoxy)-N-methyl-3-(thiophen-2-yl)propan-1-amine], the Ki lay within 100 to 500 nM.

Turning to `CCNCc1cccc(OC(CCNC)c2cccs2)c1` (stereo not drawn) [Example 5, 3-(3-((Ethylamino)methyl)phenoxy)-N-methyl-3-(thiophen-2-yl)propan-1-amine], the Ki lay within 100 to 500 nM.

On to `CNCCC(Oc1cccc(C(=O)NCc2ccccn2)c1)c1cccs1` (stereo not drawn) [Example 7, 3-(3-(Methylamino)-1-(thiophen-2-yl)propoxy)-N-(pyridin-2-ylmethyl)benzamide], for which the Ki is no less than 3000 nM.

With `CNCCC(Oc1cccc(C(=O)Nc2cccnc2)c1)c1cccs1` (stereo not drawn) [Example 8, 3-(3-(Methylamino)-1-(thiophen-2-yl)propoxy)-N-(pyridin-3-yl)benzamide], the Ki lay within 500 to 3000 nM.

In the case of `CNCCC(Oc1cccc(C(=O)Nc2cccc(-c3nnc(C)o3)c2)c1)c1cccs1` (stereo not drawn) [Example 9, N-(3-(5-methyl-1,3,4-oxadiazol-2-yl)phenyl)-3-(3-(methylamino)-1-(thiophen-2-yl)propoxy)benzamide], the Ki fell in the range of 500 to 3000 nM.

As to `CNCCC(Oc1cccc(C(=O)NCc2ccccc2)c1)c1cccs1` (stereo not drawn) [Example 10, N-benzyl-3-(3-(methylamino)-1-(thiophen-2-yl)propoxy)benzamide], the Ki is 500 to 3000 nM.

Turning to `CNCCC(Oc1cccc(C(=O)Nc2ccccc2CN(C)C)c1)c1cccs1` (stereo not drawn) [Example 11, N-(2-((dimethylamino)methyl)phenyl)-3-(3-(methylamino)-1-(thiophen-2-yl)propoxy)benzamide], the Ki lay in the range of 500 to 3000 nM.

Regarding `CNCCC(Oc1cccc(C(=O)Nc2ccccc2N(C)C)c1)c1cccs1` (stereo not drawn) [Example 12, N-(2-(dimethylamino)phenyl)-3-(3-(methylamino)-1-(thiophen-2-yl)propoxy)benzamide], the Ki lay within 500 to 3000 nM.

As to `CNCCC(Oc1cccc(C(=O)NC)c1)c1ccccc1` (stereo not drawn) [Example 16, N-methyl-3-(3-(methylamino)-1-phenylpropoxy)benzamide], the Ki was no less than 3000 nM.

Regarding `CCNC(=O)c1cccc(OC(CCNC)c2ccccc2)c1` (stereo not drawn) [Example 19, N-ethyl-3-(3-(methylamino)-1-phenylpropoxy)benzamide], the Ki is no less than 3000 nM.

Regarding `CCNc1ccc(NC(=O)c2cccc(OC(CCNC)c3ccccc3)c2)cn1` (stereo not drawn) [Example 21, N-(6-(ethylamino)pyridin-3-yl)-3-(3-(methylamino)-1-phenylpropoxy)benzamide], the Ki was no less than 3000 nM.

For `CNCCC(Oc1cccc(N(C)C(=O)c2ccccc2)c1)c1ccccc1` (stereo not drawn) [Example 23, N-methyl-N-(3-(3-(methylamino)-1-phenylpropoxy)phenyl) benzamide], the Ki was no less than 3000 nM.

As for `CNCCC(Oc1cccc(N(C)C(C)=O)c1)c1ccccc1` (stereo not drawn) [Example 24, N-methyl-N-(3-(3-(methylamino)-1-phenylpropoxy)phenyl)acetamide], the Ki was no less than 3000 nM.

On to `CCCC(=O)N(C)c1cccc(OC(CCNC)c2ccccc2)c1` (stereo not drawn) [Example 25, N-methyl-N-(3-(3-(methylamino)-1-phenylpropoxy)phenyl)butyramide], for which the Ki was no less than 3000 nM.

Consider `CNCCC(Oc1cccc(N(C)C(=O)c2cccnc2)c1)c1ccccc1` (stereo not drawn) [Example 26, N-methyl-N-(3-(3-(methylamino)-1-phenylpropoxy)phenyl)nicotinamide], for which the Ki was no less than 3000 nM.

Regarding `CCNc1ncc(C(=O)N(C)c2cccc(OC(CCNC)c3ccccc3)c2)c(N2CCCC2)n1` (stereo not drawn) [Example 29, 2-(Ethylamino)-N-methyl-N-(3-(3-(methylamino)-1-phenylpropoxy)phenyl)-4-(pyrrolidin-1-yl)pyrimidine-5-carboxamide], the Ki was no less than 3000 nM.

For `CCNc1ncc(C(=O)N(C)c2cccc(OC(CCNC)c3cccs3)c2)c(N2CCCC2)n1` (stereo not drawn) [Example 30, 2-(Ethylamino)-N-methyl-N-(3-(3-(methylamino)-1-(thiophen-2-yl)propoxy)phenyl)-4-(pyrrolidin-1-yl)pyrimidine-5-carboxamide], the Ki lay within 500 to 3000 nM.

Turning to `CNCCC(OCc1cccc(N(C)C(=O)c2ccccc2)c1)c1ccccc1` (stereo not drawn) [Example 31, N-methyl-N-(3-((3-(methylamino)-1-phenylpropoxy)methyl)phenyl)benzamide], the Ki is no less than 3000 nM.

As to `CNCCC(OCc1cccc(N(C)C(=O)c2cccnc2)c1)c1ccccc1` (stereo not drawn) [Example 32, N-methyl-N-(3-((3-(methylamino)-1-phenylpropoxy)methyl)phenyl)nicotinamide], the Ki was no less than 3000 nM.

Consider `CNCCC(OCc1cccc(N(C)C(=O)c2cnc(OC)nc2)c1)c1ccccc1` (stereo not drawn) [Example 33, 2-Methoxy-N-methyl-N-(3-((3-(methylamino)-1-phenylpropoxy)methyl)phenyl)pyrimidine-5-carboxamide], for which the Ki is no less than 3000 nM.

With `CNCCC(OCc1cccc(N(C)C(=O)c2cncnc2)c1)c1ccccc1` (stereo not drawn) [Example 34, N-methyl-N-(3-((3-(methylamino)-1-phenylpropoxy)methyl)phenyl)pyrimidine-5-carboxamide], the Ki was no less than 3000 nM.

As to `CNCCC(OCc1cccc(N(C)C(=O)c2cnc(SC)nc2)c1)c1ccccc1` (stereo not drawn) [Example 35, N-methyl-N-(3-((3-(methylamino)-1-phenylpropoxy)methyl)phenyl)-2-(methylthio)pyrimidine-5-carboxamide], the Ki was no less than 3000 nM.

Turning to `CNCCC(OCc1cccc(N(C)C(=O)c2ccccn2)c1)c1ccccc1` (stereo not drawn) [Example 36, N-methyl-N-(3-((3-(methylamino)-1-phenylpropoxy)methyl)phenyl)picolinamide], the Ki is no less than 3000 nM.

Regarding `CCNc1ncc(C(=O)N(C)c2cccc(COC(CCNC)c3ccccc3)c2)c(N2CCCC2)n1` (stereo not drawn) [Example 37, 2-(Ethylamino)-N-methyl-N-(3-((3-(methylamino)-1-phenylpropoxy)methyl)phenyl)-4-(pyrrolidin-1-yl)pyrimidine-5-carboxamide], the Ki was in the range of 500 to 3000 nM.

As for `CNCCC(OCc1cccc(NC(=O)c2cccnc2)c1)c1ccccc1` (stereo not drawn) [Example 40, N-(3-((3-(methylamino)-1-phenylpropoxy)methyl)phenyl)nicotinamide], the Ki was no less than 3000 nM.

With `CNCCC(OCc1cccc(NC(=O)c2cncnc2)c1)c1ccccc1` (stereo not drawn) [Example 42, N-(3-((3-(methylamino)-1-phenylpropoxy)methyl)phenyl)pyrimidine-5-carboxamide], the Ki was no less than 3000 nM.

`CNCCC(OCc1cccc(NC(=O)c2cnc(SC)nc2)c1)c1ccccc1` (stereo not drawn) [Example 44, N-(3-((3-(methylamino)-1-phenylpropoxy)methyl)phenyl)-2-(methylthio)pyrimidine-5-carboxamide]: the Ki was no less than 3000 nM.

With `CCNc1ncc(C(=O)Nc2cccc(COC(CCNC)c3ccccc3)c2)c(N2CCCC2)n1` (stereo not drawn) [Example 45, 2-(Ethylamino)-N-(3-((3-(methylamino)-1-phenylpropoxy)methyl)phenyl)-4-(pyrrolidin-1-yl)pyrimidine-5-carboxamide], the Ki lay within 500 to 3000 nM.

`CNCCC(OCc1cccc(NC(=O)c2ccccc2N(C)C)c1)c1cccs1` (stereo not drawn) [Example 47, 2-(Dimethylamino)-N-(3-((3-(methylamino)-1-(thiophen-2-yl)propoxy)methyl)phenyl)benzamide]: the Ki was no less than 3000 nM.

Turning to `CCNc1ncc(C(=O)Nc2cccc(COC(CCNC)c3cccs3)c2)c(N2CCCC2)n1` (stereo not drawn) [Example 49, 2-(Ethylamino)-N-(3-((3-(methylamino)-1-(thiophen-2-yl)propoxy)methyl)phenyl)-4-(pyrrolidin-1-yl)pyrimidine-5-carboxamide], the Ki fell in the range of 500 to 3000 nM.

Regarding `CCNc1ncc(C(=O)Nc2cccc(OC(CCNC)c3cccs3)c2)c(N2CCCC2)n1` (stereo not drawn) [Example 51, 2-(Ethylamino)-N-(3-(3-(methylamino)-1-(thiophen-2-yl)propoxy)phenyl)-4-(pyrrolidin-1-yl)pyrimidine-5-carboxamide], the Ki lay in the range of 500 to 3000 nM.

Turning to `CNCCC(OCc1cccc(NCc2ccccc2)c1)c1ccccc1` (stereo not drawn) [Example 52, N-benzyl-3-((3-(methylamino)-1-phenylpropoxy)methyl)aniline], the Ki is no less than 3000 nM.

In the case of `CNCCC(OCc1cccc(NCc2cncnc2)c1)c1ccccc1` (stereo not drawn) [Example 53, 3-((3-(Methylamino)-1-phenylpropoxy)methyl)-N-(pyrimidin-5-ylmethyl)aniline], the Ki was no less than 3000 nM.

Regarding `CN(C)CCC(OCc1cccc(NC(=O)c2ccccc2)c1)c1cccs1` (stereo not drawn) [Example 54, N-(3-((3-(dimethylamino)-1-(thiophen-2-yl)propoxy)methyl)phenyl) benzamide], the Ki is no less than 3000 nM.

For the compound `CN(C)CCC(OCc1cccc(NC(=O)c2ccccc2N(C)C)c1)c1cccs1` (stereo not drawn) [Example 55, 2-(Dimethylamino)-N-(3-((3-(dimethylamino)-1-(thiophen-2-yl)propoxy)methyl)phenyl)benzamide], the Ki was no less than 3000 nM.

In the case of `CCN(Cc1cccc(OC(CCNC)c2cccs2)c1)C(=O)c1ccccc1` (stereo not drawn) [Example 56, N-ethyl-N-(3-(3-(methylamino)-1-(thiophen-2-yl)propoxy)benzyl) benzamide], the Ki was no less than 3000 nM.

Take `CNCCC(OCc1cccc(N(Cc2ccccc2)C(C)=O)c1)c1ccccc1` (stereo not drawn) [Example 57, N-benzyl-N-(3-((3-(methylamino)-1-phenylpropoxy)methyl)phenyl) acetamide]: the Ki was no less than 3000 nM.
